The values below are quoted from earlier work in paper PMC2804221 (The Journal of Biological Chemistry, 2009).

With “Exendin-4(9–39): truncated form of exendin-4, and a competitive antagonist”, in the series on isolated ECD of GLP-1R, the IC50 (commonly the midpoint of a concentration-inhibition curve) is 6 nM. In addition, the “mode of action at GLP-1R” value in the series with GLP-1R is “competitive antagonist”.
